This passage reports IC50 results from US20250304549A1, “HYDROXYAMIDE DERIVATIVE AND USE THEREOF” (SICHUAN HUIYU PHARMACEUTICAL CO., LTD., priority 2022, published 2025).

Structures are written as SMILES. pIC50: −log10 of the molar value. Counter-ions that a name gives are not always drawn.

One may read the pIC50 as the IC50 on a negative log10 scale, so that one unit is a factor of ten. For orientation: IC50 means the concentration that inhibits the measured activity by half.

One test addresses LSD1 (Homo sapiens (Human), UniProt O60341). Description: In vitro enzyme inhibition assay - LSD1 (HTRF). In kind it is biochemical. (In general: In TR-FRET formats the signal depends on donor and acceptor labels being close together.)
Another test has as its target HDAC1 (Homo sapiens (Human), UniProt Q13547). Briefly: In vitro enzyme inhibition assay - HDAC (HDAC-Glo I/II), HDAC1. The following applies: read-out: HDAC IC50 (nM) HDAC 1. In kind it is biochemical. In outline:
(§1)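 Eight compound concentrations (5-fold steps from a 1 mM DMSO stock) tested against pan-HDAC, HDAC1 and HDAC8 with HDAC-Glo I/II reagents, luminescence read-out. Percent inhibition normalized to no-inhibitor and no-enzyme wells; IC50 derived by four-parameter logistic fit.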

A further test has as its target pan-HDAC. Description: In vitro enzyme inhibition assay - HDAC (HDAC-Glo I/II), pan-HDAC. In kind it is biochemical. In outline: as §1
Another test has as its system DU145 cells. Briefly: In vitro cell inhibition assay - DU145 cell proliferation (CellTiter-Glo). Type of test: cell-based. Particulars: Homo sapiens, DU-145, Du145 prostate cancer cell proliferation. In outline:
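DU145 cells were seeded at 1×10^3 per well, exposed next day to an 8-point, 5-fold compound dilution series in RPMI-640 with 10% FBS, and incubated 6 days at 37° C. Viable cells were measured by CellTiter-Glo luminescence, and IC50 was fitted from inhibition rates relative to no-inhibitor and no-cell controls.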

For another test, the target named is HDAC8 (Homo sapiens (Human), UniProt Q9BY41). Description: In vitro enzyme inhibition assay - HDAC (HDAC-Glo I/II), HDAC8. In kind it is biochemical. The following applies: read-out: HDAC IC50 (nM) HDAC 8. In outline: as §1
Chain of HDAC8 (Q9BY41 whole entry): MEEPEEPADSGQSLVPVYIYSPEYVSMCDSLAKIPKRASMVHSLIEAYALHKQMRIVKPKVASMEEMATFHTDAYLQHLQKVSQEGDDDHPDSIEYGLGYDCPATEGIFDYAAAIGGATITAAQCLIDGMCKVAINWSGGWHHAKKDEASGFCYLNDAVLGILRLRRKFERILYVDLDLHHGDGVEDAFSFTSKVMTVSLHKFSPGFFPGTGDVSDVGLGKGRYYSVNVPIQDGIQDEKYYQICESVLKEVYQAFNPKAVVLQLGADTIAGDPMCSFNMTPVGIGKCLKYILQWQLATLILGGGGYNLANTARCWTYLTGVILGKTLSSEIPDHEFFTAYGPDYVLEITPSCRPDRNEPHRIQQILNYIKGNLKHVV
A further test relates to NCI-H69 cells. Description: In vitro cell inhibition assay - NCI-H69 cell proliferation (CellTiter-Glo). Type of test: cell-based. The following applies: Homo sapiens, NCI-H69, H69 small cell lung cancer cell proliferation. In outline:
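7-day exposure at 37° C., 5% CO2 to compounds serially diluted 5-fold (8 concentrations) in RPMI-640 containing 20% FBS, after overnight attachment at 1×10^3 cells/well. Read-out: CellTiter-Glo luminescence (RLU); IC50 from curve fit of inhibition rate.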

The test system of the next test is NCI-H1417 cells. Description: In vitro cell inhibition assay - H1417 cell proliferation (CellTiter-Glo). In kind it is cell-based. The following applies: Homo sapiens, NCI-H1417, H1417 small cell lung cancer cell proliferation. In outline: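 Cells exposed to 8 compound concentrations (5-fold dilutions) in BEGM with 10% FBS for 7 days at 37° C., 5% CO2. Viable cells measured by CellTiter-Glo luminescence; inhibition versus no-inhibitor and no-cell controls, IC50 fitted.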
Background: Cellular ATP, detected with luciferase, serves as a proxy for viable cell number.

Another test concerns NCI-H526 cells. Description: In vitro cell inhibition assay - NCI-H526 cell proliferation (CellTiter-Glo). Type of test: cell-based. The following applies: Homo sapiens, NCI-H526, 120 h, H526 small cell lung cancer cell proliferation, 5 days. In outline:
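NCI-H526 cells plated at 1×10^3 per well overnight, then treated with 8 concentrations (5-fold dilutions) in RPMI-640 with 10% FBS for 5 days at 37° C., 5% CO2. Viable cells quantified by CellTiter-Glo luminescence; IC50 fitted from inhibition rates relative to no-inhibitor and no-cell controls.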

Chain of HDAC1 (Q13547 whole entry): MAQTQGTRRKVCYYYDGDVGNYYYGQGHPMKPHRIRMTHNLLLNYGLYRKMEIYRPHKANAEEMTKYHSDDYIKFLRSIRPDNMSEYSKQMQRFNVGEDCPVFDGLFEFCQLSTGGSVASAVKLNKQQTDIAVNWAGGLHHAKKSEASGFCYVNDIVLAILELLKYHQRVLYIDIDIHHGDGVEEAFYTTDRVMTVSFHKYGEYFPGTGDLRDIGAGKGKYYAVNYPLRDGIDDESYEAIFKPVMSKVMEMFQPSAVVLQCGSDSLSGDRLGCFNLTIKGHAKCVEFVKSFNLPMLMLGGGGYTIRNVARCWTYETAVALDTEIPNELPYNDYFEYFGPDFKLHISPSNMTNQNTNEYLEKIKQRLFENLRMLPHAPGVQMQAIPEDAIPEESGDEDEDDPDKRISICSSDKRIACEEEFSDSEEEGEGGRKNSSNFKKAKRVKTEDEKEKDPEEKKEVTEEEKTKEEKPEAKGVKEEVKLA

As for `COc1ccc(-c2cnc(N3CCC(NCc4ccc(/C=C/C(=O)NO)cc4)CC3)c(C#N)c2-c2ccc([N+](=O)[O-])cc2)cc1O` [Example 150, (E)-3-(4-(((1-(3-Cyano-5-(3-hydroxy-4-methoxyphenyl)-4-(4-nitrophenyl)pyridin-2-yl)piperidin-4-yl)amino)methyl)phenyl)-N-hydroxyacrylamide formate], the pIC50 on LSD1 is 9.23; with DU145 cells it was 8.03; in the test with NCI-H69 cells, 7.77; in the test on NCI-H1417 cells it was 8.26; in the test with NCI-H526 cells it was 8.01. Further, the values for the IC50 on HDAC1, against pan-HDAC and at HDAC8 were 0.21 nM, 1.3 nM and 89.3 nM, respectively.
